We go through three compounds from article PMC6222747, “Synthesis and Structure-Activity Relationship of Daphnetin Derivatives as Potent Antioxidant Agents” (Molecules : A Journal of Synthetic Chemistry and Natural …, 2018).

Data set [1] can be described thus: Ferric reducing power (FRAP) assay. The data set is classed as biochemical. To be noted: for reducing antioxidant power (FRAP), result in words: compared with daphnetin or the parent compound. On the procedure: (§1) The antioxidant activity is influenced by many factors, which cannot be fully described with a single antioxidant assay. Thus, in this study, antioxidant activities in vitro were evaluated using the free radical scavenging effect on 2,2′-diphenyl-1-picrylhydrazyl (DPPH), 2,2′-azinobis-(3-ethylbenzthiazoline-6-sulfonate) cation (ABTS^+). and the ferric reducing power (FRAP) assay, respectively, according to the literature with a slight modification.
The FRAP (ferric reducing antioxidant power) reagent was prepared with acetate buffer (300 mmol/L, pH 3.6), 2,4,6-tripyridyl-s-triazine (TPTZ) (10 mmol/L in HCl, 40 mmol/L) and FeCl3 (20 mmol/L). The proportions were 10:1:1 (v:v:v), respectively. Each sample solution was added to the FRAP reagent (1:30, v:v) and incubated at 37 °C for 5 min. The absorbance was determined at 593 nm using a spectrophotometer (Hitachi U-2800 Spectrophotometer, Tokyo, Japan). The Trolox standard solution (concentration range: 0–0.4 mmol/L) in ethanol was analyzed under the same conditions as those used for the calibration. The values of the reducing power were determined using a calibration curve of Trolox and expressed as the Trolox equivalent ([…], mmolTrolox/mmol sample).

Data set [2] in a line: DPPH radical scavenging assay. The format is biochemical. The settings on record: DPPH radical scavenging, 30 min at room temperature, absorbance 517 nm, triplicate. The protocol:
as §1
Each sample in an ethanol solution (0.1 mL) was added to 3.9 mL DPPH ethanol solution (0.1 mmol/L). The solution was vortexed for 10 s and incubated at room temperature for 30 min. […] The Trolox standard solution (concentration range: 0–0.4 mmol/L) in ethanol was analyzed under the same conditions as those used for calibration. […]
(In general: The DPPH test is a chemical assay of radical scavenging.)

The subject of data set [3] is mononuclear cells of umbilical blood. Also noted: method as in PMID 15113635. To be noted: cited from earlier work.
Data set [4] can be described thus: ABTS+ radical scavenging assay. The format is biochemical. To be noted: 3 min at room temperature, absorbance 734 nm, triplicate. On the procedure: as §1
The mixture was incubated in the dark at room temperature for 15–16 h before use. […] Each sample solution (0.1 mL) was added to 3.9 mL ABTS^+ solution, and the absorbance was measured at room temperature after 3 min. The Trolox standard solution (concentration range: 0–0.4 mmol/L) in ethanol was analyzed under the same conditions as those used for the calibration. […]

Data set [5] is described as follows: Metabolic stability assay in vitro (UGT and COMT incubation system, S9 fraction). The format is in vitro ADME, human. To be noted: for half-life: UGT and COMT incubation system, pooled human S9, 2 mM UDPGA and 0.2 mM SAM, 37 °C, pH 7.4, read-out: metabolic elimination t1/2. The source says: The simultaneous improvement of utility as a drug and pharmacological activity is still a challenge for the structural optimization of lead compounds. From the view of the chemical structure, the catechol group is not only the pharmacophore of the coumarins but also the susceptible group for the attack of phase II metabolic enzymes. As phenolic hydroxyls, catechol coumarins primarily undergo conjugative reactions mediated by phase II metabolizing enzymes, including uridine-5-diphosphate glucuronosyl transferase (UGT) and catechol-O-methyltransferase (COMT). […] In summary, 4-carbethoxyl DAP 9 holds strong potential to be developed as an antioxidant agent with excellent antioxidant activity and good pharmacokinetic properties.
Metabolic stability assay in vitro
To determine the effects of a combination of glucuronidation and methylation, daphnetin and compound 9 were
incubated with S9 fraction in the presence of two cofactors (2 mM UDPGA and 0.2 mM SAM). The incubation mixture
contained pooled human S9 fraction (0.02 mg mL-1 protein), 5 mM MgCl2, 2 mM UDPGA, 0.2 mM SAM and 5 mM
daphnetin derivatives (dissolved in DMSO, final concentration 1%) in 200 mL of 50 mM Tris buffer (pH 7.4), as
described in the reported manuscript. Controls were incubated in the absence of UDPGA and SAM. After incubation at
37 °C for 0 to 6 0 min, the reactions were terminated by adding […] of cold acetonitrile. The samples were
centrifuged at 20 000 g for 20 min. The supernatants (200 mL) were subjected to assay for the time - dependent
esculetins depletion using HPLC.
Daphnetin and compound 9 were analyzed by a ultra - fast l iquid chromatography spectrometry system (Shimadzu,
Kyoto, Japan), equipped with two LC - 20AD pumps, a DGU - 20A3 vacuum degasser, a SIL - 20ACHT auto - sampler, a
CTO - 20AC column oven, an SPD - M 20A diode - array detector (DAD), a CBM - 20A communicati ons bus module, a […]
the equation: t1/2 = ln2/-k, where k represents the terminal elimination rate constant and is calculated as the negative […]

For another data set, the system named is human single cell DNA. Also noted: method as in PMID 12561251. To be noted: cited from earlier work.

On to `O=c1ccc2ccc(O)c(O)c2o1` [Compound 1, 7,8-dihydroxycoumarin, reference compound], for which the “reducing antioxidant power, fold higher than that of the standard antioxidant Trolox” value in data set [1] (relative to Trolox) was found to be 2.5 fold. Also, the EC50 (usually the concentration giving half of the maximal effect) in data set [2] was found to be 46.2 ± 1.45 µM; in data set [4], 159 ± 4.63 µM. For the same compound, the “protection of mononuclear cells of umbilical blood from oxidative attack, compared with resveratrol” value in data set [3] is “stronger activities in protecting mononuclear cells of umbilical blood from oxidative attack than resveratrol”. Also, the half-life in data set [5] is 20.3 min.
With `O=C(O)Cc1cc(=O)oc2c(O)c(O)ccc12` [Compound 9, 2-(7,8-Dihydroxy-2-oxo-2H-chromen-4-yl)acetic acid], the “reducing antioxidant power (FRAP), result in words” value in data set [1] is given as “three-fold increase in reducing antioxidant power”. The results for the half-maximal effective concentration (EC50) in data set [2] and in data set [4] (listed as 4-CH2COOH DAP (9)) were 31.4 ± 0.68 µM and 72.3 ± 2.7 µM, respectively. Also, the half-life in data set [5] is 96.5 min. Further, in data set [5] (UGT and COMT incubation systems in vitro), the “t1/2 of compound 9 relative to that of compound 1” value is “five-fold longer”.
In the case of `Cc1cc(=O)oc2c(O)c(O)ccc12` [Compound 2, 7,8-Dihydroxy-4-methyl-2H-chromen-2-one], the “reducing antioxidant power (FRAP), result in words” value in data set [1] is listed as “decreased activities of daphnetin but were still superior to Trolox”. In addition, the EC50 in data set [2] was found to be 85.6 ± 2.13 µM; in data set [4], 224.5 ± 1.94 µM. Besides, the “protection of mononuclear cells of umbilical blood from oxidative attack, compared with resveratrol” value in data set [3] is “stronger activities in protecting mononuclear cells of umbilical blood from oxidative attack than resveratrol”. Moreover, in the data set on human single cell DNA, the “protection of human single cell DNA from oxidative attack, compared with curcumin and resveratrol” value was “more effective in protection of human single cell DNA from oxidative attack than curcumin and resveratrol”.
